Measurements reported in patent publication US8748497B2, “Optimized fluorocarbon emulsions for blood substitutes and other therapeutic uses” (Alliance Pharmaceutical Corp., priority 2006, dated 2014).
Where two headings read alike, the source gives them in different places.

Columns and labels:
[1] = tissue distribution after single intravenous administration of the emulsion of Ex. VI, GC headspace; format: in vivo, Sprague Dawley rats
From the text: (§1) This study was designed to assess the pharmokinetics and tissue distribution of PFOB and PFDB following a single intravenous administration of the emulsion of Ex. VI at various time intervals at dose levels of 1.8 and 3.6 g PFC/k in male and female Sprague Daley rats, aged 7-9 weeks, weight between 190-267 grams. For pharmacokinetics, 160 rats were divided into 20 groups (N=4 rats/sex/dose/time interval) and for tissue distribution, 156 rats were divided into 26 groups (n=3 rats/sex/dose/time interval). The time intervals for pharmacokinetics blood sampling were 0.083, 0.5, 1, 3, 6, 12, 36, 48, 72 and 96 hours. The time intervals for tissue sampling was predose, 24 hours, 1, 2, 4, 8, 13, 17, 21, 26, 39, 52 and 72 weeks.
26 groups (N=3 rats/sex/group). Prior to euthanasia, body weights were recorded. At designated times (see below), rats were anesthetized with METOFANE® and esanguinated via the abdominal artery. Blood was collected into syringes containing EDTA and transferred into sealed plastic containers for storage at approximately −20° C. until analyzed. Resultant data were included in the determination of pharmacokinetic parameters. The following tissues were collected from each rat and placed in sealed containers and stored frozen at −20° C. Prior to freezing, blood and tissue samples were processed for analysis. PFOB and PFDB were quantified in blood and tissues using a GC headspace method validated by Oread. The method was validated in the liver and then cross validated to all other tissues, blood, and serum. The tissues collected and analyzed include heart, lungs, abdominal fat, spleen, liver, mesenteric lymph nodes, kidneys, adrenals, testes, ovaries, uterus, whole brain, eyes, skeletal muscle, femoral bone marrow, and gastrointestinal tract.
The concentration of PFOB and PFDB was determined in the tissues in both sexes at 12 time points. For the males, this was a total of 360 individual results including blood. There were 24 additional results for the female.

[2] = in vivo; cited from earlier work
[3] = pharmacokinetics in subjects undergoing noncardiac surgical procedures; format: in vivo, human; conditions: human, whole blood, noncardiac surgery; for clearance: read-out: CL (whole blood clearance) (converted); for Cmax: read-out: Cmax (maximum whole blood concentration); for half-life: read-out: T1/2 (elimination half-life) (converted)
Method: The pharmacokinetics of PFOB and PFDB were determined after the administration of the fluorocarbon emulsion of Example VI to subjects undergoing total hip replacement or spinal surgery or a variety of urologic and gynaecologic procedures including radical retropubic prostatectomy, radical hysterectomy, cystectomy and combined procedures. Human subjects in one study received either 0.9 g PFC/kg or 1.8 g PFC/kg of the fluorocarbon formulation of Example VI and those in a second study received 1.8 g PFC/kg of the fluorocarbon formulation of Example VI.

[4] = pharmacokinetics in blood after single intravenous administration of the emulsion of Ex. VI; format: in vivo, Sprague Dawley rats; conditions: for MRT last / half-life: Sprague-Dawley, rat; for MRT last: read-out: MRT(0-last); for Vd: terminal phase; for half-life: iv, read-out: T1/2 (converted)
From the text: as §1
Six pharmacokinetic parameters were determined following a single intravenous dose of 1.8 gPFC/kg or 3.6 g PFC/kg in both the male and female rats as shown in the tables below.

[5] = Phase 1 pharmacokinetics in healthy human volunteers; format: in vivo; conditions: for AUC(0-t) / half-life / Cmax: human, blood; for AUC(0-t) / half-life: intravenous; for AUC(0-t): read-out: AUC (0-336); for half-life: read-out: t1/2. 12 h (initial elimination half-life within the first 12 h post dose) (converted); for Cmax: iv, healthy volunteers
Method: Two randomised, controlled, double-blind, parallel group, Phase 1 studies were conducted in healthy human patients with the fluorocarbon emulsion made according to Example VI. Blood and expired air samples were analysed for PFOB and PFDB after a single intravenous dose of 1.2 or 1.8 g PFC/kg of the fluorocarbon emulsion of Example VI in healthy human volunteers to determine pharmacokinetics. Blood samples were collected up to 336 hours post-dosing.

[6] = pharmacokinetics in subjects undergoing CABG surgery with hypothermic CPB; format: in vivo, human; conditions: human, whole blood, other: directly into the bypass oxygenator, 2.7 g PFC/kg
Method: The pharmacokinetics of PFOB and PFDB were determined after the administration of the fluorocarbon formulation taught in Example VI to human subjects undergoing coronary artery bypass grafting or CABG surgery with hypothermic cardiopulmonary bypass. In group 1 and in group 2, human subjects received the fluorocarbon emulsion (2.7 g PFC/kg) as taught in Example VI directly into the bypass oxygenator after being put on bypass but before cooling was begun. In group 4, subjects received 2.7 g PFC/kg of the fluorocarbon emulsion of Example VI directly into the bypass oxygenator either prior to aortic cannulation or after being put on bypass, but before cooling was begun.

[7] = female rats, 1.8 g PFC/kg, 24 hours
[8] = female rats, 3.6 g PFC/kg, 24 hours
[9] = male rats, 1.8 g PFC/kg, 24 hours
[10] = female rats, 1.8 g PFC/kg single iv, blood
[11] = female rats, 3.6 g PFC/kg single iv, blood
[12] = male rats, 1.8 g PFC/kg single iv, blood
[13] = male rats, 3.6 g PFC/kg single iv, blood
[14] = 1.2 g PFC/kg, Table VII, 1.2 g PFC/kg
[15] = 1.2 g PFC/kg, Table VIII, 1.2 g PFC/kg
[16] = 1.8 g PFC/kg, Table VII, 1.8 g PFC/kg
[17] = 1.8 g PFC/kg, Table VIII, 1.8 g PFC/kg

With FC(F)(F)C(F)(F)C(F)(F)C(F)(F)C(F)(F)C(F)(F)C(F)(F)C(F)(F)C(F)(F)C(F)(F)Br [PFDB, perfluorodecyl bromide] the “concentration in the spleen and liver” value ([1]; 24 hours, males 1.8 g PFC/kg) was “above 1 mg/g”, the concentration at 24 h ([1]; Sprague-Dawley, rat, intravenous, 24 hr, all tissues, both sexes and both doses, read-out: absolute concentration in tissues) was greater than 1000 ng/g and the “percent of dose in liver” value [1, 7] was roughly 86%. The “percent of dose in spleen” value [1, 7] was “approximately 14%”, the “percent of dose in liver” value [1, 8] was “approximately 62%” and the “percent of dose in spleen” value [1, 8] was “approximately 8%”. For the same compound, the “concentration in the lymph nodes, spleen, liver and bone marrow” value ([1]; females 3.6 g PFC/kg) was “above 1 mg/g”, the “percent of dose in liver” value [1, 9] was roughly 85% and the “percent of dose in spleen” value [1, 9] was “approximately 15%”. For the same compound, the “percent of dose in spleen” value ([1]; male rats, 3.6 g PFC/kg) was “approximately 11%”, the “percent of dose in liver” value ([1]; male rats, 3.6 g PFC/kg, 24 hours) was roughly 69% and the “concentration in the spleen, liver, and bone marrow” value ([1]; males 3.6 PFC/kg) was “above 1 mg/g”. The “half-life in the RES” value [2] was 23 days, the AUC(0-inf) ([3]; 0.9 g PFC/kg) was 736 ± 483 µg·h/mL and the clearance ([3]; 0.9 g PFC/kg) was 0.973 mL/min/kg. For the same compound, the Cmax ([3]; 0.9 g PFC/kg) was 284 ± 92.7 µg/mL, the half-life ([3]; 0.9 g PFC/kg) was 164 ± 79.2 min and the AUC(0-inf) ([3]; 1.8 g PFC/kg) was 2950 µg·h/mL. It also gave a clearance ([3]; 1.8 g PFC/kg) of 0.595 mL/min/kg, a Cmax ([3]; 1.8 g PFC/kg) of 620 ± 158 µg/mL and a half-life ([3]; 1.8 g PFC/kg) of 334 ± 289 min. It also gave an MRT last ([4]; 1.8 g/kg, female rats, 1.8 g PFC/kg single iv, blood) of 4.72 days, an MRT last ([4]; 1.8 g/kg, male rats, 1.8 g PFC/kg single iv, blood) of 13.8 days and an MRT last ([4]; 3.6 g/kg, female rats, 3.6 g PFC/kg single iv, blood) of 18.3 days. For the same compound, the MRT last ([4]; 3.6 g/kg, male rats, 3.6 g PFC/kg single iv, blood) was 20.2 days, the “AUC(o-last)” value [4, 10] was 6.86 mg·h/g and the “AUC(o-∞)” value [4, 10] was 7.54 mg·h/g. For the same compound, the Cl [4, 10] was 238.76 g/h/kg, the T1/2 ([4]; female rats, 1.8 g PFC/kg single iv, blood, last 3 or 4 data points) was 199.851 days and the Vd ([4]; female rats, 1.8 g PFC/kg single iv) was 1652163 g/kg. For the same compound, the “AUC(o-last)” value [4, 11] was 21.99 mg·h/g, the “AUC(o-∞)” value [4, 11] was 22.87 mg·h/g and the Cl [4, 11] was 157.39 g/h/kg. For the same compound, the Vd ([4]; female rats, 3.6 g PFC/kg single iv) was 1728719 g/kg, the half-life ([4]; female, blood, 1.8 g/kg, female rats, 1.8 g PFC/kg single iv, blood, last 3 or 4 data points) was roughly 200 days and the half-life ([4]; female, blood, 3.6 g/kg, female rats, 3.6 g PFC/kg single iv, blood, last 3 or 4 data points) was roughly 317 days. The “AUC(o-last)” value [4, 12] was 6.88 mg·h/g, the “AUC(o-∞)” value [4, 12] was 10.65 mg·h/g and the Cl [4, 12] was 169.05 g/h/kg. The Vd ([4]; male rats, 1.8 g PFC/kg single iv) was 6128576 g/kg, the “AUC(o-last)” value [4, 13] was 24.67 mg·h/g and the “AUC(o-∞)” value [4, 13] was 27.62 mg·h/g. The Cl [4, 13] was 130.34 g/h/kg, the Vd ([4]; male rats, 3.6 g PFC/kg single iv) was 2359442 g/kg and the half-life ([4]; male, blood, 1.8 g/kg, male rats, 1.8 g PFC/kg single iv, blood, last 3 or 4 data points) was roughly 1050 days. It also gave a half-life ([4]; male, blood, 3.6 g/kg, male rats, 3.6 g PFC/kg single iv, blood, last 3 or 4 data points) of roughly 523 days, a t1/2. 12 h (initial elimination half-life within the first 12 h post dose) ([5]; Table VIII, 1.2 g PFC/kg) of 13.6 h and an AUC(0-t) [5, 14] of 6640 µg·h/mL. The half-life [5, 14] was 822 ± 216 min, the AUC(0-t) [5, 15] was 4630 µg·h/mL and the half-life [5, 15] was 441 min. It also gave an AUC(0-t) [5, 16] of 16300 µg·h/mL, a half-life [5, 16] of 1120 min and an AUC(0-t) [5, 17] of 11200 µg·h/mL. For the same compound, the half-life [5, 17] was 756 min, the Cmax ([5]; 1.2 g PFC/kg, Table VII, 1.2 g PFC/kg single iv) was 540 ± 125 µg/mL and the Cmax ([5]; 1.2 g PFC/kg, Table VIII, 1.2 g PFC/kg single iv) was 670 ± 420 µg/mL. It also gave a Cmax ([5]; 1.8 g PFC/kg, Table VII, 1.8 g PFC/kg single iv) of 978 ± 499 µg/mL, a Cmax ([5]; 1.8 g PFC/kg, Table VIII, 1.8 g PFC/kg single iv) of 884 ± 196 µg/mL and an AUC(0-inf) [6] of 16200 µg·h/mL. The clearance ([6]; read-out: CL (whole blood clearance) (converted)) was 0.113 mL/min/kg, the Cmax ([6]; read-out: Cmax (maximum whole blood concentration)) was 1030 µg/mL and the half-life ([6]; read-out: T1/2 (elimination half-life) (converted)) was 648 ± 268 min.
